The nature of the data set: Pharmacokinetic parameters after oral gavage in Sprague Dawley rats. It is filed as in vivo, male Sprague Dawley rats. As to conditions: rat, 10 mg/kg. The method, then:
The in vivo pharmacokinetic parameters of mesoporous silica (AMS-6) loaded with probucol (34.8 wt %) prepared according to the procedure as described in Example 1, were obtained after oral gavage to male Sprague Dawley rats at a dose of 10 mg/kg. Crystalline probucol (PB) was administered in comparison. […] Further, the maximum concentration of probucol after administration of silica loaded with probucol is approximately 10 times higher than when crystalline probucol is administered.

The source of these data is patent US20220096398A1, “COMPLEXES AND COMPOSITIONS COMPRISING PROBUCOL AND USES THEREOF” (MACQUARIE UNIVERSITY, priority 2019, published 2022).

`CC(C)(Sc1cc(C(C)(C)C)c(O)c(C(C)(C)C)c1)Sc1cc(C(C)(C)C)c(O)c(C(C)(C)C)c1` [PB, Probucol] gave a Tlast of 24 h. Moreover, for the setting “male, Sprague Dawley, plasma”, the total exposure AUC(0-inf) amounted to 859 ng·h/mL, the Cmax is 30.9 ng/mL, the Tmax was determined as 8 h and the half-life was 19.6 h. Besides, the AUC(0-t) (male, Sprague Dawley, plasma, read-out: AUC0-24) is 492 ng·h/mL.

For orientation: AUC(0-inf) means the area under the concentration-time curve extrapolated to infinity. A high value points to high exposure. The term Cmax denotes the maximum level reached in the sampled fluid or tissue. A word on the Tmax: it is the time at which the peak concentration occurs. A word on the half-life: it is how long it takes for the measured level to halve. Read a high half-life as slow loss.
